Assay results from patent US4218471A, “Process for the treatment of humans suffering from undesired urotoxic side effects caused by cytostatically active alkylating agents” (Asta-Werke Aktiengesellschaft Chemische Fabrik, priority 1978, dated 1980).
Where a name gives a salt, the structure may show the parent alone.

Legend:
[1] = tested on: undesired urotoxic side effects caused by cytostatically active alkylating agents; conditions: background, cited from earlier work; for effect of introducing solutions into the urinary bladder by catheter: instillation, in particular cytostatics at very high dosages; for protective activity against cytostatically active alkylating agents: cysteine compared with salts of mercapto alkane sulfonic acids, cystine = corresponding disulfide
[2] = tested on: kidneys, urinary tracts and urinary bladder; test: urotoxic side effects in cancer patients treated with ifosfamide (hematuria, albuminuria, damage to kidney and urinary bladder); assay type: in vivo, human; conditions: for hematuria under ifosfamide therapy without thiol/disulfide protection: 5 times per day, 5 days
Protocol: In accordance with the known practice of therapy a patient and suffering from a theratoid carcinoma of the testicle, at first is subjected to irradiation and thereafter is treated with ifosfamide [i.e. 2-(N-2-chloroethyl-amino)-3-(2-chloroethyl)-2-oxo-1,3,2-oxazaphosphorinane] at 5 times per day, each time with 60 mg./kg. intravenously and at 5 subsequent days. The patient is simultaneously hydrated by administration of 4 liters of water spread over the day and is alkalinized by administration of hexapotassium hexasodium pentacitrate hydrate complex. […] This necessitated immediate rupture of the therapy. After a recovery period of 14 days, the therapy is repeated. However, 60 mg/kg. of the disodium salt of 2,2'-dithiodi-(ethane sulfonic acid) is administered intravenously and simultaneously with each dose of 60 mg/kg. of ifosfamide. The patient is controlled daily for micro- and […] and for albuminuria.
In another patient suffering from the same tumor, the therapy at first is started with the oral administration of 60 mg./kg. of the disodium salt of 2.2'-dithiodi-(ethane sulfonic acid). Two hours thereafter, 60 mg./kg. of ifosfamide are administered intravenously. The same treatment, i.e. the combination of an oral preadministration of the disodium salt of 2,2'-dithiodi-(ethane sulfonic acid) and a subsequent intravenous administration of 60 mg./kg. of ifosfamide is repeated at 5 subsequent days. […] In both the above treatments a moderate hydration (2 liters per day) has been carried out. The treatment rendered superfluous alkalinization as well as the most burdensome instillation of mercapto group containing compounds into the bladder of the patient by means of a catheter.
According to the general experience with such patients, there occurs very readily […] despite application of all known prophylactic treatments such as hydration, alkalinization or instillation of mercapto group containing compounds into the urinary bladder.
(§1) In accordance with the known practice of therapy, a patient and suffering from a cancer of the ovary, at first is subjected to irradiation and thereafter is treated with ifosfamide [i.e. 2-(N-2-chloroethyl-amino)-3-(2-chloroethyl)-2-oxo-1,3,2-oxazaphosphorinane] at 5 times per day, each time with 60 mg./kg. intravenously and at 5 subsequent days. […] After a recovery period of 14 days the therapy is repeated. However, 35 mg./kg. of the sodium salt of 2-mercapto ethane sulfonic acid is administered intravenously and simultaneously with each dose of 60 mg./kg. of ifosfamide, 60, 120 and, respectively, 180 minutes after this intravenous injection 45 mg. of the disodium salt of 2,2'-dithiodi-(ethanesulfonic acid) each time are administered to the patient. The patient is controlled daily for micro- and macrohematuria and for albuminuria. […] The examination of the urine upon cytotoxic activity at varying times after administration of ifosfamide also was negative.
The same protective treatment was effected with the same favourable results in patients suffering from other cancer deceases such as parvicellular bronchial carcinoma or pancreatic carcinoma.

[3] = examination of the urine upon cytotoxic activity / cytostatically active metabolites after administration of ifosfamide; assay type: in vivo, human; conditions: Example 4: same combination with sodium salt of 2-mercapto ethane sulfonic acid
Protocol: as §1

## CC(=O)N[C@@H](CS)C(=O)O [N-acetylcysteine]
[1]; instillation into urinary bladder with cyclophosphamide and ifosfamide at very high dosages
  clinical effectiveness of the instillation prophylaxis: by no means was satisfactory
[1]
  effect of introducing solutions into the urinary bladder by catheter: very limited

## N[C@@H](CS)C(=O)O [cysteine]
[1]
  protective activity against cytostatically active alkylating agents: limited but distinct protective activity
  effect of introducing solutions into the urinary bladder by catheter: very limited

## N[C@@H](CSSC[C@H](N)C(=O)O)C(=O)O [cystine]
[1]
  protective activity against cytostatically active alkylating agents: does not have any such protective activity

## O=S(=O)(O)CCSSCCS(=O)(=O)O [disodium salt of 2,2'-dithiodi-(ethanesulfonic acid)]
[2]; Example 1: 60 mg/kg i.v. simultaneously with each dose of 60 mg/kg ifosfamide, same patient after 14 days recovery
  erythrocytes, albumina or granular cylindrical cells in the urine: At no time during the treatment erythrocytes, albumina or granular cylindrical cells were found in the urine of the patient
[2]; Example 2: 60 mg/kg oral, two hours before ifosfamide 60 mg/kg i.v., 5 subsequent days, moderate hydration 2 liters per day
  damage to kidney or urinary bladder, hematuria, albumina or granular cylindrical cells in the urine: no indication of any damage to the kidney or the urinary bladder or of hematuria or of albumina or granular cylindrical cells in the urine of the patient at any time during the treatment
[2]; Example 3: 60 mg/kg i.v. simultaneously with ifosfamide 60 mg/kg i.v. single dose over 5 days, patient sensibilized by regional radiotherapy
  damage to the kidneys and the urinary bladder: there did not occur any damage to the kidneys and the urinary bladder
[2]; Example 4: 35 mg/kg sodium salt of 2-mercapto ethane sulfonic acid i.v. simultaneously with ifosfamide 60 mg/kg, then 45 mg disodium salt of 2,2'-dithiodi-(ethanesulfonic acid) at 60, 120 and 180 minutes
  hematuria or albuminuria: no indication of hematuria or albuminuria
[3]; after ifosfamide
  cytostatically active metabolites in the urine: No cytostatically active metabolites were found in the urine
[3]; varying times after ifosfamide
  cytotoxic activity of the urine: negative

## O=P1(NCCCl)OCCCN1CCCl (stereo not shown) [ifosfamide, 2-(N-2-chloroethyl-amino)-3-(2-chloroethyl)-2-oxo-1,3,2-oxazaphosphorinane]
[2]; Example 1: ifosfamide 60 mg/kg i.v., with hydration 4 liters and alkalinization, testicular carcinoma patient
  hematuria under ifosfamide therapy without thiol/disulfide protection: macrohematuria already on the fourth day
[2]; Example 4: ifosfamide 60 mg/kg i.v., with hydration and alkalinization, patient with cancer of the ovary
  hematuria under ifosfamide therapy without thiol/disulfide protection: microhematuria
